Among the data in patent US9290453B2 (Merck Sharp & Dohme Corp., priority 2010, dated 2016) are Ki values, retold here.

The structures appear in SMILES notation.

The first assay has as its target T1, hCRTH2 (Homo sapiens, UniProt Q9Y5Y4).
T1 construct: expressed in transfected cells; host or cells: HEK (human embryonic kidney) cells expressing hCRTH2
T1 sequence (Q9Y5Y4 1-395): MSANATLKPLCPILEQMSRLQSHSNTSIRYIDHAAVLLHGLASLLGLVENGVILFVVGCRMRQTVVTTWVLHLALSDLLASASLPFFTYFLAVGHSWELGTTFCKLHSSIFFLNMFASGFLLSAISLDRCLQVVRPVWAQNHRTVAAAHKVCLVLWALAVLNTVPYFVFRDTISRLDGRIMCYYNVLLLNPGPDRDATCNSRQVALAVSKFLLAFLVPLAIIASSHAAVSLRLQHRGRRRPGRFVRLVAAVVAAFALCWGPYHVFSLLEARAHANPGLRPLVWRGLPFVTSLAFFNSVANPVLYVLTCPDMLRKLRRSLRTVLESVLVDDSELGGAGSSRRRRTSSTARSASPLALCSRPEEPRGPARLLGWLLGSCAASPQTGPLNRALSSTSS
The experiment in a line: Radioligand Binding Assay B (scintillation proximity assay, [3H]-PGD2, HEK-hCRTH2 membranes). To be noted: Radioligand Binding Assay B (SPA), values in text. The protocol:
Radioligand binding also was performed using scintillation proximity assay (SPA) technology in a similar way as described above in Radioligand Binding Assay A with minor modification. Assays were done at room temperature in 10 mM HEPES pH 7.4, 1 mM EDTA containing 2 mM MnCl2 and 16 nM [^3H]-PGD2 (PerkinElmer, Waltham, Mass.) (164 Ci mmol^−1), in a final volume of 0.05 mL. Competing ligands were diluted in dimethylsulfoxide (Me2SO) and added using very low volumes (50 nL). The reaction was initiated by the addition of a mixture of 3.52 μg of membrane protein prepared from a human embryonic kidney (HEK)-hCRTH2 cell line adhered to 140 ug of wheatgerm agglutinin SPA beads (PerkinElmer). Total and non-specific binding were determined in the absence and the presence of 10 μM of a CRTH2 antagonist, respectively. The reaction was routinely conducted for 60 min at room temperature followed by centrifugation for 5 minutes at 1000 RPM. The radioactivity was measured with a TopCountNXT (PerkinElmer). Results determined using the SPA-based assay were similar to those from the filtration binding assay.
Background: Scintillation proximity formats need no separation of bound from free tracer.
Usually Ki stands for a measure of affinity in units of concentration, obtained from inhibition or displacement. High values mean lower affinity, low ones higher affinity. `Cc1ccccc1N1CCN(C(=O)c2ccc3nc(-c4ccc(F)cc4)c(CCCCC(=O)O)cc3c2)CC1` [Compound 5AT, 5-(2-(4-fluorophenyl)-6-(4-(o-tolyl)piperazine-1-carbonyl)quinolin-3-yl)pentanoic acid] returned a Ki of 7.2 nM. This lies in the single-digit nanomolar range.
In the case of `CC1(C)CC(NC(=O)c2ccc3nc(-c4ccc(Cl)cc4)c(CCCCC(=O)O)cc3c2)c2ccccc2O1` (stereo not shown) [Compound 5BH, 5-(2-(4-chlorophenyl)-6-((2,2-dimethylchroman-4-yl)carbamoyl)quinolin-3-yl)pentanoic acid], the Ki was determined as 27.3 nM.

Still in this assay, the particulars now being: Table B, Radioligand Binding Assay B (SPA), rated A-D.
In turn, `O=C(O)CCCCc1cc2cc(C(=O)NC3CC(=O)Nc4ccccc43)ccc2nc1-c1ccc(F)cc1` (stereo not shown) [Compound 5AL, 5-(2-(4-fluorophenyl)-6-((2-oxo-1,2,3,4-tetrahydroquinolin-4-yl)carbamoyl)quinolin-3-yl)pentanoic acid] came in with a Ki of 2.1 to 20 nM.
Take `O=C(O)CCCCc1cc2cc(C(=O)N3CC(c4ccccc4)C3)ccc2nc1-c1ccc(F)cc1` [Compound 5AM, 5-(2-(4-fluorophenyl)-6-(3-phenylazetidine-1-carbonyl)quinolin-3-yl)pentanoic acid]: the Ki is 2.1 to 20 nM.
Take `O=C(O)CCCCc1cc2cc(C(=O)NCc3ccccc3)ccc2nc1-c1ccc(F)cc1` [Compound 5AN, 5-(6-(benzylcarbamoyl)-2-(4-fluorophenyl)quinolin-3-yl)pentanoic acid]: the Ki was in the range of 20.1 to 200 nM.
The same measure, in the same setting: the same measure for `COc1ccccc1C1CCN(C(=O)c2ccc3nc(-c4ccc(F)cc4)c(CCCCC(=O)O)cc3c2)CC1` [Compound 5AP, 5-(2-(4-fluorophenyl)-6-(4-(2-methoxyphenyl)piperidine-1-carbonyl)quinolin-3-yl)pentanoic acid]: 2.1 to 20 nM; for `O=C(O)CCCCc1cc2cc(C(=O)N3CCC4(CC3)OCc3ccccc34)ccc2nc1-c1ccc(F)cc1` [Compound 5AQ, 5-(2-(4-fluorophenyl)-6-(3H-spiro[isobenzofuran-1,4′-piperidin]-1′-ylcarbonyl)quinolin-3-yl)pentanoic acid]: 2.1 to 20 nM.
On to `O=C(O)CCCCc1cc2cc(C(=O)N3CCN(c4ccccc4C(F)(F)F)CC3)ccc2nc1-c1ccc(F)cc1` [Compound 5AR, 5-(2-(4-fluorophenyl)-6-(4-(2-(trifluoromethyl)phenyl)piperazine-1-carbonyl)quinolin-3-yl)pentanoic acid], for which the Ki lay within 2.1 to 20 nM.
With `O=C(O)CCCCc1cc2cc(C(=O)N3CCN(c4ccccc4Cl)CC3)ccc2nc1-c1ccc(F)cc1` [Compound 5AS, 5-(6-(4-(2-chlorophenyl)piperazine-1-carbonyl)-2-(4-fluorophenyl)quinolin-3-yl)pentanoic acid], the Ki lay in the range of 2.1 to 20 nM.
For the molecule `Cc1ccccc1N1CCN(C(=O)c2ccc3nc(-c4ccc(F)cc4)c(CCCCC(=O)O)cc3c2)CC1` [Compound 5AT, 5-(2-(4-fluorophenyl)-6-(4-(o-tolyl)piperazine-1-carbonyl)quinolin-3-yl)pentanoic acid], the Ki is 2.1 to 20 nM.
`Cc1cccc(N2CCN(C(=O)c3ccc4nc(-c5ccc(F)cc5)c(CCCCC(=O)O)cc4c3)CC2)c1` [Compound 5AU, 5-(2-(4-fluorophenyl)-6-(4-(m-tolyl)piperazine-1-carbonyl)quinolin-3-yl)pentanoic acid] displayed a Ki of 2.1 to 20 nM.
Still for that read-out and setting: the same measure for `COc1ccc(N2CCN(C(=O)c3ccc4nc(-c5ccc(F)cc5)c(CCCCC(=O)O)cc4c3)CC2)cc1` [Compound 5AV, 5-(2-(4-fluorophenyl)-6-(4-(4-methoxyphenyl)piperazine-1-carbonyl)quinolin-3-yl)pentanoic acid]: 2.1 to 20 nM.
On the same count and under the same terms, next, `Cc1ccc(N2CCN(C(=O)c3ccc4nc(-c5ccc(F)cc5)c(CCCCC(=O)O)cc4c3)CC2)cc1` [Compound 5AW, 5-(2-(4-fluorophenyl)-6-(4-(p-tolyl)piperazine-1-carbonyl)quinolin-3-yl)pentanoic acid]: 2.1 to 20 nM; `O=C(O)CCCCc1cc2cc(C(=O)N3CCN(c4ccc(F)cc4)CC3)ccc2nc1-c1ccc(F)cc1` [Compound 5AX, 5-(2-(4-fluorophenyl)-6-(4-(4-fluorophenyl)piperazine-1-carbonyl)quinolin-3-yl)pentanoic acid]: 2.1 to 20 nM; `O=C(O)CCCCc1cc2cc(C(=O)N[C@@H]3CCCc4cc(F)ccc43)ccc2nc1-c1ccc(Cl)cc1` [Compound 5AY, (R)-5-(2-(4-chlorophenyl)-6-((6-fluoro-1,2,3,4-tetrahydronaphthalen-1-yl)carbamoyl)quinolin-3-yl)pentanoic acid]: 2.1 to 20 nM.
Same read-out and setting: next, `O=C(O)CCCCc1cc2cc(C(=O)N[C@@H]3CCCc4ccccc43)ccc2nc1-c1ccc(Cl)cc1` [Compound 5AZ, (R)-5-(2-(4-chlorophenyl)-6-((1,2,3,4-tetrahydronaphthalen-1-yl)carbamoyl)quinolin-3-yl)pentanoic acid]: 2.1 to 20 nM.
Molecule `CN(Cc1ccc(F)cc1)C(=O)c1ccc2nc(-c3ccc(F)cc3)c(CCCCC(=O)O)cc2c1` [Compound 5Ai, 5-(6-((4-fluorobenzyl)(methyl)carbamoyl)-2-(4-fluorophenyl)quinolin-3-yl)pentanoic acid] registered a Ki of 2.1 to 20 nM.
Take `N#Cc1ccccc1N1CCN(C(=O)c2ccc3nc(-c4ccc(F)cc4)c(CCCCC(=O)O)cc3c2)CC1` [Compound 5Ao, 5-(6-(4-(2-cyanophenyl)piperazine-1-carbonyl)-2-(4-fluorophenyl)quinolin-3-yl)pentanoic acid]: the Ki was 2.1 to 20 nM.
Consider `O=C(O)CCCCc1cc2cc(C(=O)N[C@@H]3CCOc4ccccc43)ccc2nc1-c1ccc(Cl)cc1` [Compound 5BA, (R)-5-(2-(4-chlorophenyl)-6-(chroman-4-ylcarbamoyl)quinolin-3-yl)pentanoic acid], for which the Ki is 2.1 to 20 nM.
The molecule `O=C(O)CCCCc1cc2cc(C(=O)N[C@@H]3COc4ccccc43)ccc2nc1-c1ccc(Cl)cc1` [Compound 5BB, (S)-5-(2-(4-chlorophenyl)-6-((2,3-dihydrobenzofuran-3-yl)carbamoyl)quinolin-3-yl)pentanoic acid] returned a Ki of 2.1 to 20 nM.
For the molecule `C[C@@H](NC(=O)c1ccc2nc(-c3ccc(Cl)cc3)c(CCCCC(=O)O)cc2c1)c1ccc(F)cc1` [Compound 5BC, (R)-5-(2-(4-chlorophenyl)-6-((1-(4-fluorophenyl)ethyl)carbamoyl)quinolin-3-yl)pentanoic acid], the Ki lay in the range of 2.1 to 20 nM.
`O=C(O)CCCCc1cc2cc(C(=O)N3CCN(c4ccccc4)CC3)ccc2nc1-c1ccc(Cl)cc1` [Compound 5BD, 5-(2-(4-chlorophenyl)-6-(4-phenylpiperazine-1-carbonyl)quinolin-3-yl)pentanoic acid] came in with a Ki of 2.1 to 20 nM.
In turn, `O=C(O)CCCCc1cc2cc(C(=O)N3CC(c4cccc(F)c4)C3)ccc2nc1-c1ccc(Cl)cc1` [Compound 5BE, 5-(2-(4-chlorophenyl)-6-(3-(3-fluorophenyl)azetidine-1-carbonyl)quinolin-3-yl)pentanoic acid] returned a Ki of 2.1 to 20 nM.
Still for that read-out and setting: next, `O=C(O)CCCCc1cc2cc(C(=O)N3CC[C@@H](c4ccccc4)C3)ccc2nc1-c1ccc(Cl)cc1` [Compound 5BF, (S)-5-(2-(4-chlorophenyl)-6-(3-phenylpyrrolidine-1-carbonyl)quinolin-3-yl)pentanoic acid]: 2.1 to 20 nM; `CN(Cc1ccc(F)cc1)C(=O)c1ccc2nc(-c3ccc(Cl)cc3)c(CCCCC(=O)O)cc2c1` [Compound 5BG, 5-(2-(4-chlorophenyl)-6-((4-fluorobenzyl)(methyl)carbamoyl)quinolin-3-yl)pentanoic acid]: 2.1 to 20 nM.
Molecule `CC1(C)CC(NC(=O)c2ccc3nc(-c4ccc(Cl)cc4)c(CCCCC(=O)O)cc3c2)c2ccccc2O1` (stereo not shown) [Compound 5BH, 5-(2-(4-chlorophenyl)-6-((2,2-dimethylchroman-4-yl)carbamoyl)quinolin-3-yl)pentanoic acid] came in with a Ki of 20.1 to 200 nM.
For `O=C(O)CCCCc1cc2cc(C(=O)NC3CC(=O)Nc4ccccc43)ccc2nc1-c1ccc(Cl)cc1` (stereo not shown) [Compound 5BJ, 5-(2-(4-chlorophenyl)-6-((2-oxo-1,2,3,4-tetrahydroquinolin-4-yl)carbamoyl)quinolin-3-yl)pentanoic acid], the Ki lay in the range of 2.1 to 20 nM.
Consider `O=C(O)CCCCc1cc2cc(C(=O)N3CC(c4ccccc4)C3)ccc2nc1-c1ccc(Cl)cc1` [Compound 5BK, 5-(2-(4-chlorophenyl)-6-(3-phenylazetidine-1-carbonyl)quinolin-3-yl)pentanoic acid], for which the Ki fell in the range of 2.1 to 20 nM.
Molecule `O=C(O)CCCCc1cc2cc(C(=O)NCc3ccccc3)ccc2nc1-c1ccc(Cl)cc1` [Compound 5BL, 5-(6-(benzylcarbamoyl)-2-(4-chlorophenyl)quinolin-3-yl)pentanoic acid] had a Ki of 2.1 to 20 nM.
Regarding `N#Cc1ccccc1N1CCN(C(=O)c2ccc3nc(-c4ccc(Cl)cc4)c(CCCCC(=O)O)cc3c2)CC1` [Compound 5BM, 5-(2-(4-chlorophenyl)-6-(4-(2-cyanophenyl)piperazine-1-carbonyl)quinolin-3-yl)pentanoic acid], the Ki lay in the range of 2.1 to 20 nM.
For the molecule `COc1ccccc1C1CCN(C(=O)c2ccc3nc(-c4ccc(Cl)cc4)c(CCCCC(=O)O)cc3c2)CC1` [Compound 5BN, 5-(2-(4-chlorophenyl)-6-(4-(2-methoxyphenyl)piperidine-1-carbonyl)quinolin-3-yl)pentanoic acid], the Ki was in the range of 2.1 to 20 nM.
